Test results: patent publication US20230149326A1, “PHARMACEUTICAL COMPOSITION FOR PREVENTING OR TREATING MUSCULAR WEAKNESS-RELATED DISEASES COMPRISING ALVERINE, 4-HYDROXY ALVERINE, DERIVATIVE THEREOF, OR PHARMACEUTICALLY ACCEPTABLE SALT THEREOF” (AVENTI INC., priority 2020, published 2023)
Counter-ions that a name gives are not always drawn.

What was measured:
Format in all cases: in vivo
C57BL/6 male mice [1] = assay: Grip strength measurement, normal mouse; settings: oral, 4 weeks, 17, 50 or 150 mg/kg/day; compared with normal group
Experimental: In order to confirm the muscle strength enhancement effect of alverine citrate, after administering alverine citrate to a mouse, the mouse was tested for motor functions such as grip strength, running, balance coordination, and the like. After motor function tests, muscle weight was measured. In particular, each of 10 week-old C57BL/6 male mice was dosed orally with 200 μL of alverine citrate for 4 weeks, at a daily dose of 17 mg/kg/day (AC-L), 50 mg/kg/day (AC-M) or 150 mg/kg/day (AC-H). This group of mice was set as the experimental group (FIG. 3). The 10 week-old C57BL/6 male mice were purchased from Daehan BioLink. Grip strength was measured using a grip strength meter for mice (Bioseb, USA). In particular, the mice were placed on a metal grid connected to an instrument panel through which grip strength can be monitored, and while pulling the mice back by tail, the grip strength by which the mice grabbed the metal grid was measured. Here, 5 consecutive, repeated measurements were recorded and an average value of the 5 measurements was calculated.

C57BL/6 male mice [2] = assay: Running ability test (treadmill), normal mouse; settings: oral
Experimental: In order to confirm the muscle strength enhancement effect of alverine citrate, after administering alverine citrate to a mouse, the mouse was tested for motor functions such as grip strength, running, balance coordination, and the like. After motor function tests, muscle weight was measured. In particular, each of 10 week-old C57BL/6 male mice was dosed orally with 200 μL of alverine citrate for 4 weeks, at a daily dose of 17 mg/kg/day (AC-L), 50 mg/kg/day (AC-M) or 150 mg/kg/day (AC-H). This group of mice was set as the experimental group (FIG. 3). The 10 week-old C57BL/6 male mice were purchased from Daehan BioLink. Running ability was measured using a treadmill designed specific for this experiment. First, aversive stimuli were provided by letting electric stimuli flow at the starting point. Before the measurement, the mice were acclimatized at 8 m/min for 10 minutes. The running time was recorded by allowing mice in each group to run in separate lanes until exhaustion. Exhaustion was defined such that when the mouse stays outside the lanes for 10 seconds or more without running, the mouse was determined to be exhausted and the time was recorded. It was not possible to repeat this experiment on the same mouse. The mouse was placed on the treadmill and the test was started at 8 rpm, and the speed was accelerated by 2 rpm every 10 minutes to a maximum speed of 20 rpm. […]

C57BL/6 male mice [3] = assay: Muscle weight measurement, normal mouse
Experimental: In order to confirm the muscle strength enhancement effect of alverine citrate, after administering alverine citrate to a mouse, the mouse was tested for motor functions such as grip strength, running, balance coordination, and the like. After motor function tests, muscle weight was measured. In particular, each of 10 week-old C57BL/6 male mice was dosed orally with 200 μL of alverine citrate for 4 weeks, at a daily dose of 17 mg/kg/day (AC-L), 50 mg/kg/day (AC-M) or 150 mg/kg/day (AC-H). This group of mice was set as the experimental group (FIG. 3). The 10 week-old C57BL/6 male mice were purchased from Daehan BioLink. For muscle weight measurement, gastrocnemius (GA) tibialis anterior (TA) muscles in the hindlimb of the mice in each group were removed and weighed.

sarcopenia-induced mice [4] = assay: Running ability test, sarcopenia-induced mouse; settings: hindlimb-immobilized mice; oral 17, 50, 150 mg/kg/day
Experimental: Running ability was measured using a treadmill designed specific for this experiment. First, aversive stimuli were provided by letting electric stimuli flow at the starting point. Before the measurement, the mice were acclimatized at 8 m/min for 10 minutes. The running time was recorded by allowing mice in each group to run in separate lanes until exhaustion. Exhaustion was defined such that when the mouse stays outside the lanes for 10 seconds or more without running, the mouse was determined to be exhausted and the time was recorded. It was not possible to repeat this experiment on the same mouse. The mouse was placed on the treadmill and the test was started at 8 rpm, and the speed was accelerated by 2 rpm every 10 minutes to a maximum speed of 20 rpm. The slope of the lane started from a zero-degree incline and then was elevated to a five-degree incline after 30 min from the start. In order to confirm a muscle strength enhancement effect of alverine citrate, sarcopenia-induced mice were administered with alverine citrate and tested for running ability. After the treadmill running test, muscle weight was measured. In particular, the hindlimb of 10 week-old C57BL/6 male mice was immobilized using a surgical stapler (Autosuture Royal 35W stapler). […] After that, running ability was measured. […] Running ability was measured by the same method as in Example 2.2.

sarcopenia-induced mice [5] = assay: Muscle weight measurement, sarcopenia-induced mouse; settings: hindlimb-immobilized mice; oral 17, 50, 150 mg/kg/day
Experimental: In order to confirm a muscle strength enhancement effect of alverine citrate, sarcopenia-induced mice were administered with alverine citrate and tested for running ability. After the treadmill running test, muscle weight was measured. In particular, the hindlimb of 10 week-old C57BL/6 male mice was immobilized using a surgical stapler (Autosuture Royal 35W stapler). The staples were removed after 5 days and the mice were allowed to remobilize for 3 days. After that, running ability was measured. The mice were dosed orally with 200 μL of alverine citrate per mice at a dose of 17 mg/kg/day (AC-L), 50 mg/kg/day (AC-M) or 150 mg/kg/day (AC-H), and these mice were set as the experimental group. Untreated sarcopenia-induced mice were set as the control group (FIG. 8). The 10 week-old C57BL/6 male mice were purchased from Daehan BioLink. For muscle weight measurement, the GA and TA muscles in the hindlimb of the mice in each group were removed and weighed.

`CCN(CCCc1ccccc1)CCCc1ccccc1` [alverine citrate] was tested, and the grip strength (C57BL/6 male mice [1]) was “higher than that of the mouse in the normal group”, the running time (C57BL/6 male mice [2]; 4 weeks, 150 mg/kg/day) was “significant increase in the running time” and the running time (C57BL/6 male mice [2]; 4 weeks, 17, 50 or 150 mg/kg/day, compared with normal group) was “increased compared to the normal group mouse”. For the same molecule, the “muscle weight of GA and TA, dependence on dose” value (C57BL/6 male mice [3]; as the administration dose increases (17, 50, 150 mg/kg/day)) was “also increased”, the “muscle weight of GA and TA” value (C57BL/6 male mice [3]; oral, 4 weeks, 17, 50 or 150 mg/kg/day, compared with normal group) was “increased compared to the normal group mouse” and the “running time, dependence on dose” value (sarcopenia-induced mice [4]) was “increased proportionally with the dose concentration”. The “GA and TA muscle weights, dependence on dose” value (sarcopenia-induced mice [5]) was “also increased”.
